The text below walks through data of paper PMC11995724, “Antibiotic target discovery by integrated phenotypic and activity-based profiling of electrophilic fragments” (Cell chemical biology, 2025).

SMILES strings stand for the structures.

This series in a line: in vitro. The note with it: human, hek293t cells.
Turning to `C=CC(=O)NCc1ccc(C(=O)N2CCCCC(SC)C2)cc1` (stereo not shown) [2-B20, N-({4-[3-(methylsulfanyl)azepane-1-carbonyl]phenyl}methyl)prop-2-enamide], the viability at 48 h, 25 µM is 57.3%.
To `CC(Cl)C(=O)NC1(C(=O)N(C)C)CC(F)(F)C1` (stereo not shown) [7-K20, 1-(2-chloropropanamido)-3,3-difluoro-N,N-dimethylcyclobutane-1-carboxamide] belongs 83.7%.
As for `C=CC(=O)NCc1cc2cc(C)ccc2o1` [3-L14, N-[(5-methyl-1-benzofuran-2-yl)methyl]prop-2-enamide], the viability at 48 h, 25 µM was determined as 85.4%.
To `CC1CCCCC1NC(=O)CCl` (stereo not shown) [6-C10, 2-chloro-N-(2-methylcyclohexyl)acetamide] belongs 93.3%.
For the compound `COc1cccc(NC(=O)C(C#N)=Cc2ccc(C#N)cc2)c1` [8-G18, 2-cyano-3-(4-cyanophenyl)-N-(3-methoxyphenyl)prop-2-enamide], the viability at 48 h, 25 µM stood at 60.2%.
Regarding `CSc1ccc(C=C(C#N)C(=O)Nc2ccc3c(c2)OCCO3)cc1` [9-L05, 2-cyano-N-(2,3-dihydro-1,4-benzodioxin-6-yl)-3-[4-(methylsulfanyl)phenyl]prop-2-enamide], the viability at 48 h, 25 µM worked out at 114%.
In the case of `C=CC(=O)N1CCC(C(=O)NCC(C)c2ncc(C)s2)CC1` (stereo not shown) [3-P10, N-[2-(5-methyl-1,3-thiazol-2-yl)propyl]-1-(prop-2-enoyl)piperidine-4-carboxamide], the viability at 48 h, 25 µM worked out at 61.4%.
Regarding `N#CC(=Cc1ccccc1OC(F)F)C(=O)Nc1nccs1` [9-K19, 2-cyano-3-[2-(difluoromethoxy)phenyl]-N-(1,3-thiazol-2-yl)prop-2-enamide], the viability at 48 h, 25 µM amounted to 119%.
As for `C=CC(=O)NC1CN(S(=O)(=O)c2ccc3c(c2)OCCO3)C1` [2-E11, N-[1-(2,3-dihydro-1,4-benzodioxine-6-sulfonyl)azetidin-3-yl]prop-2-enamide], the viability at 48 h, 25 µM is 79.7%.
In the case of `C=CC(=O)N1CCC(C(=O)NCCO)CC1` [3-C18, N-(2-hydroxyethyl)-1-(prop-2-enoyl)piperidine-4-carboxamide], the viability at 48 h, 25 µM worked out at 72.9%.
Regarding `CC(Cl)C(=O)N1CCN(C(=O)CN2C(=O)CCC2=O)CC1` (stereo not shown) [6-B11, 1-{2-[4-(2-chloropropanoyl)piperazin-1-yl]-2-oxoethyl}pyrrolidine-2,5-dione], the viability at 48 h, 25 µM came out at 106%.
In the case of `Cc1ccc(S(=O)(=O)N2CCSSCC2)c(F)c1` [10-L09, 5-(2-fluoro-4-methylbenzenesulfonyl)-1,2,5-dithiazepane], the viability at 48 h, 25 µM amounted to 92.2%.
In the case of `CCOC=C(C#N)C(=O)N1CCN(S(=O)(=O)c2cc[nH]n2)CC1` [9-D06, 3-ethoxy-2-[4-(1H-pyrazole-3-sulfonyl)piperazine-1-carbonyl]prop-2-enenitrile], the viability at 48 h, 25 µM is 110%.
In the case of `C=CC(=O)N(CC)CC(=O)N1CC[S+]([O-])C(C)(C)CC1` (stereo not shown) [3-K21, N-[2-(7,7-dimethyl-1-oxo-1lambda4,4-thiazepan-4-yl)-2-oxoethyl]-N-ethylprop-2-enamide], the viability at 48 h, 25 µM stood at 40.1%.
Turning to `Cc1cc(-n2c(C)cc(C(=O)CCl)c2C)no1` [10-C18, 2-chloro-1-[2,5-dimethyl-1-(5-methyl-1,2-oxazol-3-yl)-1H-pyrrol-3-yl]ethan-1-one], the viability at 48 h, 25 µM was determined as 0.308%.
Consider `CC(Cl)C(=O)N1CCN(C(C)C)c2ccccc2C1` (stereo not shown) [7-O07, 2-chloro-1-[1-(propan-2-yl)-2,3,4,5-tetrahydro-1H-1,4-benzodiazepin-4-yl]propan-1-one], for which the viability at 48 h, 25 µM stood at 81.6%.
Turning to `CC1=CSC(=C(C#N)C(=O)NCc2ccco2)N1c1ccccc1` [8-D13, 2-cyano-N-[(furan-2-yl)methyl]-2-(4-methyl-3-phenyl-2,3-dihydro-1,3-thiazol-2-ylidene)acetamide], the viability at 48 h, 25 µM amounted to 114%.
Regarding `C=CC(=O)NC1CCN(c2nnnn2C)CC1` [3-G06, N-[1-(1-methyl-1H-1,2,3,4-tetrazol-5-yl)piperidin-4-yl]prop-2-enamide], the viability at 48 h, 25 µM was 79.8%.
For the compound `O=C(CCl)c1c[nH]c2ccc(F)cc12` [10-O11, 2-chloro-1-(5-fluoro-1H-indol-3-yl)ethan-1-one], the viability at 48 h, 25 µM stood at 0.58%.
Regarding `N#Cc1cccc2c1CC[C@H]2NC(=O)CCl` [7-D06, 2-chloro-N-[(1R)-4-cyano-2,3-dihydro-1H-inden-1-yl]acetamide], the viability at 48 h, 25 µM turned out to be 0.673%.
Consider `O=C(CCl)NCCCN1CCCCCC1=O` [5-J10, 2-chloro-N-[3-(2-oxoazepan-1-yl)propyl]acetamide], for which the viability at 48 h, 25 µM came out at 119%.
Turning to `COc1cc(C=C(C#N)C(=O)Nc2ccc3c(c2)OCCO3)ccc1O` [8-N06, 2-cyano-N-(2,3-dihydro-1,4-benzodioxin-6-yl)-3-(4-hydroxy-3-methoxyphenyl)prop-2-enamide], the viability at 48 h, 25 µM was found to be 91.5%.
The result for `C=CC(=O)NCc1nnc(COC)[nH]1` [3-F10, N-{[5-(methoxymethyl)-4H-1,2,4-triazol-3-yl]methyl}prop-2-enamide] reads 102%; that for `O=C(CCl)N1CCN(C(=O)CC(F)(F)F)CC1` [5-A08, 1-[4-(2-chloroacetyl)piperazin-1-yl]-3,3,3-trifluoropropan-1-one], 0.522%.
For the compound `CCc1ccccc1NC(=O)CN(C)C(=O)C(C)Cl` (stereo not shown) [4-P05, 2-chloro-N-{[(2-ethylphenyl)carbamoyl]methyl}-N-methylpropanamide], the viability at 48 h, 25 µM worked out at 81%.
In the case of `C=CC(=O)NC(C)c1nc(C2CCCCC2)no1` (stereo not shown) [1-N17, N-[1-(3-cyclohexyl-1,2,4-oxadiazol-5-yl)ethyl]prop-2-enamide], the viability at 48 h, 25 µM was found to be 102%.
Turning to `Cc1cc(C(=O)C(C)Cl)c(C)n1-c1ccccc1` (stereo not shown) [10-A06, 2-chloro-1-(2,5-dimethyl-1-phenyl-1H-pyrrol-3-yl)propan-1-one], the viability at 48 h, 25 µM came to 99.9%.
Take `C=CC(=O)NC1CC2CCC(C1)S2` (stereo not shown) [1-B06, N-{8-thiabicyclo[3.2.1]octan-3-yl}prop-2-enamide]: the viability at 48 h, 25 µM stood at 84.7%.
On to `C=CC(=O)N1CCC(C(=O)N2CCCN(c3nccs3)CC2)CC1` [2-L20, 1-{4-[4-(1,3-thiazol-2-yl)-1,4-diazepane-1-carbonyl]piperidin-1-yl}prop-2-en-1-one], for which the viability at 48 h, 25 µM is 90.1%.
As for `N#CC(=Cc1c(F)c(F)c(F)c(F)c1F)C(=O)NC1CCCCC1` [8-O15, 2-cyano-N-cyclohexyl-3-(2,3,4,5,6-pentafluorophenyl)prop-2-enamide], the viability at 48 h, 25 µM stood at 0.544%.
Consider `C=CC(=O)N1CC[C@H](NS(C)(=O)=O)C1` [2-H21, N-[(3S)-1-(prop-2-enoyl)pyrrolidin-3-yl]methanesulfonamide], for which the viability at 48 h, 25 µM was found to be 60.7%.
As for `CC(C)NC(=O)C(C#N)=Cc1ccc(-c2ccc([N+](=O)[O-])cc2)s1` [9-B16, 2-cyano-3-[5-(4-nitrophenyl)thiophen-2-yl]-N-(propan-2-yl)prop-2-enamide], the viability at 48 h, 25 µM worked out at 99.6%.
Take `C=CC(=O)N(Cc1cn(C)nc1C)c1ccc2c(c1)OCCO2` [1-P13, N-(2,3-dihydro-1,4-benzodioxin-6-yl)-N-[(1,3-dimethyl-1H-pyrazol-4-yl)methyl]prop-2-enamide]: the viability at 48 h, 25 µM came out at 81.5%.
As for `COc1ccc(C=C(C#N)C(=O)NC2CCCCC2)cc1O` [8-H13, 2-cyano-N-cyclohexyl-3-(3-hydroxy-4-methoxyphenyl)prop-2-enamide], the viability at 48 h, 25 µM came out at 86.5%.

Broadly, the viability is a read-out of living cells in per cent, often relative to untreated cells.
